Where “and” joins values, the source holds several entries; their conditions need not be identical. Equal values may be shown once.
What was measured:
Assay type in all cases: in vivo
[1] = tested on: Avena fatua; assay: greenhouse post-emergence treatment, AVEFA; details: Avena fatua, 480 h, 20 DAT
Procedure: (§1) The culture containers used were plastic pots containing loamy sand with approximately 3.0% of humus as substrate. The seeds of the test plants were sown separately for each species.
(§2) To this end, the test plants were either sown directly, and grown in the same containers, or they were first grown separately as seedlings and transplanted into the test containers a few days prior to treatment.
(§3) Depending on the species, the plants were kept at 10-25° C. and 20-35° C., respectively.
(§4) The test period extended over 2 to 4 weeks. During this time, the plants were tended and their response to the individual treatments was evaluated.
(§5) Evaluation was carried out using a scale from 0 to 100. 100 means no emergence of the plants, or complete destruction of at least the above-ground parts, and 0 means no damage or normal course of growth. A good herbicidal activity is given at values of at least 70, and very good herbicidal activity is given at values of at least 85.
(§6) In the examples, the solvent used was water.
(§7) In the examples below, using the method of S. R. Colby (1967) “Calculating synergistic and antagonistic responses of herbicide combinations”, Weeds 15, p. […] E=X+Y−(X·Y/100) where X=effect in percent using herbicide A at an application rate a; • Y=effect in percent using herbicide B at application rate b; • E=expected effect (in %) of herbicide A+herbicide B at application rates a+b.

[2] = tested on: Alopecurus myosuroides; assay: greenhouse post-emergence treatment, ALOMY; details: Alopecurus myosuroides, 480 h, 20 DAT, ALOMY
Procedure: as §1, §2, §3, §4, §5, §6, §7

[3] = tested on: Digitaria sanguinalis; assay: greenhouse post-emergence treatment, DIGSA; details: 20 DAT; for % activity: DIGSA
Procedure: as §1, §2, §3, §4, §5, §6, §7

[4] = tested on: Brachiaria decumbens; assay: greenhouse post-emergence treatment, BRADC; details: 20 DAT; for % activity: BRADC
Procedure: as §1
(§8) For the post-emergence treatment, the test plants were grown to a plant height of from 3 to 15 cm, depending on the plant habit, and only then treated with the active compounds which had been suspended or emulsified in water. To this end, the test plants were either sown directly, and grown in the same containers, or they were first grown separately as seedlings and transplanted into the test containers a few days prior to treatment.
as §3, §4, §5
(§9) The respective stated components A and B, and if appropriate, C were formulated as a 10% by weight strength emulsion concentrate and, with addition of the amount of solvent system, introduced into the spray liquor used for applying the active compound. In the examples, the solvent used was water.
(§10) In the examples below, using the method of S. R. Colby (1967) “Calculating synergistic and antagonistic responses of herbicide combinations”, Weeds 15, p. 22ff., the value E, which is expected if the activity of the individual active compounds is only additive, was calculated. E=X+Y−(X·Y/100) where X=effect in percent using herbicide A at an application rate a; • Y=effect in percent using herbicide B at application rate b; • E=expected effect (in %) of herbicide A+herbicide B at application rates a+b.

[5] = tested on: Bromus sterilis; assay: greenhouse post-emergence treatment, BROST; details: 20 DAT; for % activity: BROST
Procedure: as §1, §2, §3, §4, §5, §6, §7

[6] = tested on: Lolium multiflorum; assay: greenhouse post-emergence treatment, LOLMU; details: 20 DAT; for % activity: LOLMU
Procedure: as §1, §2, §3, §4, §5, §6, §7

[7] = tested on: Papaver rhoeas; assay: greenhouse post-emergence treatment, PAPRH; details: 20 DAT
Procedure: as §1, §8, §3, §4, §5, §9, §10

[8] = tested on: Ambrosia elatior; assay: greenhouse post-emergence treatment, AMBEL; details: 20 DAT
Procedure: as §1, §8, §3, §4, §5, §9, §10

[9] = tested on: Setaria viridis; assay: greenhouse post-emergence treatment, SETVI; details: 20 DAT; for % activity: SETVI
Procedure: as §1, §2, §3, §4, §5, §6, §7

[10] = tested on: Galium aparine; assay: greenhouse post-emergence treatment, GALAP; details: GALAP, 20 DAT
Procedure: as §1, §8, §3, §4, §5, §9, §10

[11] = tested on: Matricaria chamomilla; assay: greenhouse post-emergence treatment, MATCH; details: MATCH, 20 DAT
Procedure: as §1, §8, §3, §4, §5, §9, §10

[12] = solo pyroxsulam (SC 30 g/l) 7.5 gai/ha
[13] = solo pyroxsulam (SC 30 g/l) 1.875 gai/ha
[14] = solo pyroxsulam (SC 30 g/l) 3.75 gai/ha

## CCc1cc(C)cc(CC)c1-c1c(OC(=O)C(C)(C)C)n2n(c1=O)CCOCC2 [pinoxaden]
[1]; solo, EC 50 g/l, AVEFA, 7.5 gai/ha
  pest or weed control at […]: 33%
[2]; pinoxaden solo 7.5 gai/ha
  inhibition at […]: 75%
[2]; pinoxaden solo 60 gai/ha
  inhibition at 60 g/ha: 94%
[2]; solo, EC 50 g/l, 7.5 gai/ha
  pest or weed control at […]: 48%

## COc1nc(C)nc(NC(=O)NS(=O)(=O)c2cc(I)ccc2C(=O)O)n1 [iodosulfuron]
[3]; Digitaria sanguinalis, 480 h, iodosulfuron solo 1.25 gai/ha
  inhibition at 1.25 g/ha: 0%
[3]; Digitaria sanguinalis, 480 h, iodosulfuron solo 2.5 gai/ha
  inhibition at […]: 20%
[3]; Digitaria sanguinalis, 480 h, iodosulfuron solo 5 gai/ha
  inhibition at 5 g/ha: 50%
[4]; Urochloa decumbens, 480 h, iodosulfuron solo 2.5 gai/ha
  inhibition at […]: 20%
[4]; Urochloa decumbens, 480 h, iodosulfuron solo 5 gai/ha
  inhibition at 5 g/ha: 30%
[5]; Bromus sterilis, 480 h, iodosulfuron solo 1.25 gai/ha
  inhibition at 1.25 g/ha: 0%
[5]; Bromus sterilis, 480 h, iodosulfuron solo 2.5 gai/ha
  inhibition at […]: 0%
[5]; Bromus sterilis, 480 h, iodosulfuron solo 5 gai/ha
  inhibition at 5 g/ha: 0%

## CCS(=O)(=O)c1nc2ccccn2c1S(=O)(=O)NC(=O)Nc1nc(OC)cc(OC)n1 [sulfosulfuron]
[6]; Lolium multiflorum, 480 h, sulfosulfuron solo 1.5 gai/ha
  inhibition at […]: 0%
[6]; Lolium multiflorum, 480 h, sulfosulfuron solo 3 gai/ha
  inhibition at 3 g/ha: 0%
[6]; Lolium multiflorum, 480 h, sulfosulfuron solo 6 gai/ha
  inhibition at 6 g/ha: 10%
[6]; Lolium multiflorum, 480 h, sulfosulfuron solo 12 gai/ha
  inhibition at 12 g/ha: 35%
[3]; Digitaria sanguinalis, 480 h, sulfosulfuron solo 1.5 gai/ha
  inhibition at […]: 0%
[3]; Digitaria sanguinalis, 480 h, sulfosulfuron solo 3 gai/ha
  inhibition at 3 g/ha: 20%
[3]; Digitaria sanguinalis, 480 h, sulfosulfuron solo 12 gai/ha
  inhibition at 12 g/ha: 65%
[7]; Papaver rhoeas, 480 h, sulfosulfuron solo 1.5 gai/ha
  inhibition at […]: 25%
[7]; Papaver rhoeas, 480 h, sulfosulfuron solo 3 gai/ha
  inhibition at 3 g/ha: 80%
[7]; Papaver rhoeas, 480 h, PAPRH, solo sulfosulfuron (WG 80%) 1.5 gai/ha
  pest or weed control at […]: 25%
[8]; Ambrosia artemisiifolia, 480 h, sulfosulfuron solo 1.5 gai/ha
  inhibition at […]: 70%
[4]; Urochloa decumbens, 480 h, sulfosulfuron solo 1.5 gai/ha
  inhibition at […]: 20%
[4]; Urochloa decumbens, 480 h, sulfosulfuron solo 12 gai/ha
  inhibition at 12 g/ha: 80%
[1]; sulfosulfuron solo 1.5 gai/ha
  inhibition at […]: 0%
[1]; sulfosulfuron solo 3 gai/ha
  inhibition at 3 g/ha: 0%
[9]; Setaria viridis, 480 h, sulfosulfuron solo 1.5 gai/ha
  inhibition at […]: 50%
[9]; Setaria viridis, 480 h, sulfosulfuron solo 6 gai/ha
  inhibition at 6 g/ha: 65%
[9]; Setaria viridis, 480 h, sulfosulfuron solo 12 gai/ha
  inhibition at 12 g/ha: 75%
[10]; Galium aparine, 480 h, solo sulfosulfuron (WG 80%) 1.5 gai/ha
  pest or weed control at […]: 65%
[10]; Galium aparine, 480 h, solo sulfosulfuron (WG 80%) 3 gai/ha
  pest or weed control at 3 g/ha: 85%
[5]; Bromus sterilis, 480 h, sulfosulfuron solo 1.5 gai/ha
  inhibition at […]: 0%
[5]; Bromus sterilis, 480 h, sulfosulfuron solo 3 gai/ha
  inhibition at 3 g/ha: 50%
[5]; Bromus sterilis, 480 h, sulfosulfuron solo 12 gai/ha
  inhibition at 12 g/ha: 70%

## COc1cc(OC)n2nc(NS(=O)(=O)c3c(C(F)(F)F)ccnc3OC)nc2n1 [pyroxsulam]
[6]; pyroxsulam solo 1.875 gai/ha
  % activity: 60% and 80%
[6]; pyroxsulam solo 3.75 gai/ha
  % activity: 65%
[6]; pyroxsulam solo 7.5 gai/ha
  % activity: 80%
[3]; [12]
  % activity: 80%
[3]; pyroxsulam solo 1.875 gai/ha
  % activity: 65%
[3]; pyroxsulam solo 3.75 gai/ha
  % activity: 75%
[3]; pyroxsulam solo 7.5 gai/ha
  % activity: 80%
[7]; PAPRH, solo pyroxsulam (SC 30 g/l) 1.875 gai/ha
  % activity: 0%
[7]; PAPRH, solo pyroxsulam (SC 30 g/l) 3.75 gai/ha
  % activity: 0%
[7]; PAPRH, solo pyroxsulam (SC 30 g/l) 7.5 gai/ha
  % activity: 30%
[7]; PAPRH, solo pyroxsulam (SC 30 g/l) 15 gai/ha
  % activity: 70%
[7]; pyroxsulam solo 1.875 gai/ha, PAPRH
  % activity: 0%
[7]; pyroxsulam solo 3.75 gai/ha, PAPRH
  % activity: 0%
[7]; pyroxsulam solo 7.5 gai/ha, PAPRH
  % activity: 30%
[7]; pyroxsulam solo 15 gai/ha, PAPRH
  % activity: 70%
[8]; pyroxsulam solo 1.875 gai/ha, AMBEL
  % activity: 70%
[4]; [13]
  % activity: 20%
[4]; pyroxsulam solo 1.875 gai/ha
  % activity: 20%
[4]; pyroxsulam solo 3.75 gai/ha
  % activity: 75%
[11]; [13]
  % activity: 30%
[11]; [14]
  % activity: 60%
[11]; solo pyroxsulam (SC 30 g/l) 15 gai/ha
  % activity: 80%
[11]; pyroxsulam solo 1.875 gai/ha
  % activity: 30%
[11]; pyroxsulam solo 3.75 gai/ha
  % activity: 60%
[11]; pyroxsulam solo 15 gai/ha
  % activity: 80%
[9]; [13]
  % activity: 75%
[9]; pyroxsulam solo 1.875 gai/ha
  % activity: 75%
[10]; [13]
  % activity: 60%
[10]; [14]
  % activity: 65%
[10]; [12]
  % activity: 75%
[10]; pyroxsulam solo 1.875 gai/ha
  % activity: 60%
[10]; pyroxsulam solo 3.75 gai/ha
  % activity: 65%
[10]; pyroxsulam solo 7.5 gai/ha
  % activity: 75%
[10]; pyroxsulam solo 15 gai/ha
  % activity: 90%
[5]; [13]
  % activity: 60%
[5]; pyroxsulam solo 1.875 gai/ha
  % activity: 60%
[5]; pyroxsulam solo 3.75 gai/ha
  % activity: 70%
[5]; pyroxsulam solo 7.5 gai/ha
  % activity: 75%

Source: patent US10966426B2, “Herbicidal compositions comprising phenylpyrimidines” (BASF SE, priority 2016, dated 2021)
